Assay results published in patent publication EP0220873B1, “Fused bicyclic imides with psychotropic activity” (priority 1985, dated 1987).
pKi: −log10 of the molar value. Structures can show the parent of a compound that is named as a salt.

Key:
avoidance responding [1] = experiment: conditioned avoidance (discrete trial) test; assay type: in vivo, Male CD rats; details: for ED50: Rattus norvegicus
Experimental: The antipsychotic activity of the compounds of the invention is assessed via the conditioned avoidance (discrete trial) test. This test has excellent clinical correlation for antipsychotic activity.
The test is carried out as follows: Male CD rats (Charles River) maintained at approximately 400-450 gm body weight are used. Rats trained previously are placed in plexiglass experimental chambers equipped with a response lever, house light, and sonalert. A steel grid floor is wired for presentation of electric shock. Each trial consists of a fifteen-second warning tone (conditioned stimulus), continuing for an additional fifteen seconds accompanied by electric shock, (unconditioned stimulus). The rat can terminate a trial at any point by depression of the response lever. As response during the initial fifteen-second warning tone ends the trial before shock delivery and is considered avoidance response, while a response occurring during shock delivery is an escape response. Trials are presented on a variable interval schedule of two minutes. The session consists of sixty trials. Animals are run two to three times weekly with control sessions always preceding a drug run, and with at least one day intervening, compounds are administered i.p. or p.o. at appropriate pre-treatment times to a minimum of five to six rats at each dose level over a range of doses.
(§1) Response counts are summed over all subjects at a given dose. […] This number is expressed as a percentage of the total trials. Control performance is arbitrarily assigned a value of 100% for avoidance and the dose calculated to produce a 50% block in avoidance responding (AB₅₀) is obtained from a dose-effect regression line fitted by the method of least squares. Potential antipsychotic compounds suppress avoidance responding and increase escape responding.

avoidance responding [2] = experiment: conditioned avoidance (shelf-jump response) test; assay type: in vivo, Male CD rats; details: for Active at mg/kg: i.p.
Experimental: Another test designed to determine the potential antipsychotic activity of the compounds of the invention is the conditioned avoidance (shelf-jump response) test.
This test is carried out as follows: Male CD rats (Charles River) maintained at approximately 400-450 gm body weight are used. Previously trained rats are placed in plexiglass experimental chambers divided into two sections; a main chamber (10 1/2" x 6 3/4" x 11 7/8" high) and an elevated chamber or shelf (5 7/8" x 6 7/8" x 5 3/4"). A moveable wall, controlled by a motor, determines whether the rat has access to the shelf at any time during the experiment. The experimental chamber also contains a house light and sonalert. A steel grid floor in the main chamber is wired for presentation of electric shock. Each trial consists of a fifteen-second warning tone (conditioned stimulus), continuing for an additional fifteen seconds accompanied by electric shock, (unconditioned stimulus). A response (jumping onto the exposed shelf of the upper chamber) occurring during the initial fifteen-second warning tone is considered an avoidance response, while a response occurring during shock delivery is considered an escape response. Trials are presented on a fixed interval schedule of one minute. The session consists of thirty-six trials. Animals are run twice weekly with control sessions always preceding a drug run, and with at least one day intervening. Compounds are administered i.p. or p.o. at appropriate pre-treatment times to a minimum of five rats at each dose level over a range of doses.
The following experimental parameters are recorded by computer: (1) the number of avoidance responses, (2) the number of escape responses, and (3) the number of trials in which no response occurred.
as §1

[3] = biological target: T1, limbic D-2 dopamine receptor (Rattus norvegicus, UniProt P61169); experiment: biochemical; assay type: binding, rats; details: for inhibition at 1 µM: read-out: Limbic D-2 Binding, % inhibition at 1 µM; for pKi: Table 1, 0.3 nM 3H-spiroperidol, rat limbic brain tissue, read-out: Limbic D-2 Binding (KinM)
T1 construct: Limbic brain tissue (nucleus accumbens, septal area, olfactory tubercle) is dissected; from tissue; host or cells: rat limbic brain tissue (nucleus accumbens, septal area, olfactory tubercle) homogenate

[4] = ip, standard compounds, dose producing 50% block in avoidance responding, read-out: AB50 (the source's name)

T1 sequence (P61169 whole entry): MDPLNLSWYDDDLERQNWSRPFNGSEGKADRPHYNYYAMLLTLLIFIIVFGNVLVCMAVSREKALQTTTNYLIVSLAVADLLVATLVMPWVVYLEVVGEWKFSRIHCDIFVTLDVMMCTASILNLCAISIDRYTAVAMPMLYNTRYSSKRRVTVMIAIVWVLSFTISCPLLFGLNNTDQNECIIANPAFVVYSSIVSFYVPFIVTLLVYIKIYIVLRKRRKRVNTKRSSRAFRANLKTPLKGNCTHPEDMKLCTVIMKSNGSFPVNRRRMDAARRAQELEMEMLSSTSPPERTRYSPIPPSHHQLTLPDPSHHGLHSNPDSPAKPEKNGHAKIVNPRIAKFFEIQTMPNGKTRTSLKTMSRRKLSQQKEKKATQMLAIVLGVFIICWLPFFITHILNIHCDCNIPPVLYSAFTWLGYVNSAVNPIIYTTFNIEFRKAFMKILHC

Molecule | Active at mg/kg (avoidance responding [2]) | further results
2-[4-[4-(2-Pyrimidinyl)-1-piperazinyl]butyl]octahydro-4,7ethano-1H-cyclobut[f]isoindole-1,3-(2H)-dione, dihydrochloride, sesquihydrate [Example 6] | 40 (i.p.) mg/kg | Active at mg/kg (avoidance responding [1]; p.o., active dose, no AB50): 40 (p.o.) mg/kg
O=C1CC2(CCCC2)CC(=O)N1CCCCN1CCN(c2ncccn2)CC1 [Buspirone, 8-[4-[4-(2-pyrimidinyl)-1-piperazinyl]butyl]-8-azaspiro[4.5]decane-7,9-dione, reference compound] | – | ED50 (avoidance responding [2]; Rattus norvegicus, ip, standard compounds, read-out: AB50 (the source's name)): 9.94 mg/kg
O=C1C2C3C=CC(C4C=CC43)C2C(=O)N1CCCCN1CCN(c2nccnc2Cl)CC1 (centres unmarked) [Example 12, 3a,4,4a,6a,7,7a-Hexahydro-2-[4-[4-(3-chloro-2-pyrazinyl-1-piperazinyl]butyl]4,7-etheno-1H-cyclobut[f]isoindole-1,3(2H)-dione, hydrochloride, dihydrate] | 40 (i.p.) mg/kg | –
Cl.O=C1C2C3CCC(C4CC43)C2C(=O)N1CCCCN1CCN(c2cncc(Cl)n2)CC1 (centres unmarked) [Example 25, 2-[4-[4-(6-Chloro-2-pyrazinyl)-1-piperazinyl]butyl]hexahydro-4,6-ethanocycloprop[f]isoindole-1,3(2H,3aH)-dione, hydrochloride] | 40 (i.p.) mg/kg | inhibition at 1 µM [3]: 49%
Cl.O.O=C1C2C3C=CC(CCCC3)C2C(=O)N1CCCCN1CCN(c2nccnc2Cl)CC1 (centres unmarked) [Example 20, 2-[4-[4-(3-Chloro-2-pyrazinyl)-1-piperazinyl]butyl]octahydro-4,9-etheno-1H-cycloocta[c]pyrrole-1,3(2H)-dione, hydrochloride, hydrate] | 40 (i.p.) mg/kg | inhibition at 1 µM [3]: 78%
O=C(CCCN1CCC(O)(c2ccc(Cl)cc2)CC1)c1ccc(F)cc1 [Haloperidol, reference compound] | – | ED50 (avoidance responding [1]; [4]): 0.18 mg/kg
O=C1C2C3C=CC(C4C=CC43)C2C(=O)N1CCCCN1CCN(c2ccc(Cl)nn2)CC1 (centres unmarked) [Example 11, 3a,4,4a,6a,7,7a-Hexahydro-2-[4-[4-(6-chloro-3-pyridazinyl)-1-piperazinyl]butyl]4,7-etheno-1H--cyclobut[f]isoindole-1,3(2H)-dione, hydrochloride, hydrate] | 40 (i.p.) mg/kg | –
O=C1C2C3C=CC(C4CCC34)C2C(=O)N1CCCCN1CCN(c2nccnc2Cl)CC1 (centres unmarked) [Example 10, 2-[4-[4-(3-Chloro-2-pyrazinyl)-1-piperazinyl]butyl] octahydro-4,7-etheno-1H-cyclobut[f]isoindole-1,3(2H)--dione, dihydrochloride, hydrate] | 40 (i.p.) mg/kg | –
O=C(CCCN1CCC2(CC1)C(=O)NCN2c1ccccc1)c1ccc(F)cc1 [Spiperone, reference compound] | – | ED50 (avoidance responding [1]; [4]): 0.13 mg/kg
O=C1C2C3CCC(C4CCC43)C2C(=O)N1CCCCN1CCN(c2cncc(Cl)n2)CC1 (centres unmarked) [Example 5, 2-[4-[4-(6-Chloro-2-pyrazinyl-1-piperazinyl]butyl]octahydroo-4,7-ethano-1H-cyclobut[f]isoindole-1,3-(2H)-dione, hydrochloride, hemihydrate] | 40 (i.p.) mg/kg | –
O=C1C2C3C=CC(C4CC34)C2C(=O)N1CCCCN1CCN(c2ncccn2)CC1 (centres unmarked) [Example 2, 4,4a,5,5a,6,6a-Hexahydro-2-[4-[4-(2-pyrimidinyl)-1-piperazinyl]butyl]-4,6-ethenocycloprop[f]isoindole-1,3-(2H,3aH)-dione,dihydrochloride, hydrate] | 40 (i.p.) mg/kg | –
O=C1C2C3C=CC(C3)C2C(=O)N1CCCCN1CCN(c2nccnc2Cl)CC1 (centres unmarked) [Example 18, 2-[4-[4-(3-Chloro-2-pyrazinyl)-1-piperazinyl]butyl]-3a,4,7,7a-tetrahydro-4,7-methano-1H-isoindole-1,3-(2H)-dione, hydrochloride, 2.5 hydrate] | 40 (i.p.) mg/kg | inhibition at 1 µM [3]: 48%; ED50 (avoidance responding [1]; po, footnote 1 = AB50 value, read-out: Active at mg/kg (AB50 value)): 40 mg/kg
Cl.O.O=C1C2C3C=CC(C4CC34)C2C(=O)N1CCCCN1CCN(c2nccnc2Cl)CC1 (centres unmarked) [Example 19, 2-[4-[4-(3-Chloro-2-pyrazinyl)-1-piperazinyl]butyl]hexahydro-4,6-ethenocycloprop[f]isoindole-1,3(2H,3aH)-dione, hydrochloride, hydrate] | 40 (i.p.) mg/kg | pKi [3]: 7.27
O=C1C2C3C=CC(C3)C2C(=O)N1CCCCN1CCN(c2ccc(Cl)nn2)CC1 (centres unmarked) [Example 17, 2-[4-[4-(6-Chloro-3-pyridazinyl-1-piperazinyl]butyl]-3a,4,7,7a-tetrahydro-4,7-methano-1H-isoindole-1,3-(2H)-dione, hydrochloride, dihydrate] | 40 (i.p.) mg/kg | inhibition at 1 µM [3]: 19%
O=C1C2C3C=CC(C4C=CC43)C2C(=O)N1CCCCN1CCN(c2cncc(Cl)n2)CC1 (centres unmarked) [Example 4, 3a,4,4a,6a,7,7a-Hexahydro-2-[4-[4-(6-chloro-2-pyrazinyl)-1-piperazinyl]butyl]-4,7-etheno-1H-cyclobut[f]isoindole-1,3(2H)-dione, dihydrochloride, sesquihydrate] | 40 (i.p.) mg/kg | –
CSc1ccc2c(c1)N(CCC1CCCCN1C)c1ccccc1S2 (centres unmarked) [Thioridazine, reference compound] | – | ED50 (avoidance responding [1]; [4]): 8.61 mg/kg
Cl.O.O=C1C2C3C=CC(CCC3)C2C(=O)N1CCCCN1CCN(c2cncc(Cl)n2)CC1 (centres unmarked) [Example 22, 2-[4-[4-(6-Chloro-2-pyrazinyl)-1-piperazinyl]butyl]-4,5,6,7,8,8a-hexahydro-4,8-ethenocyclohepta[c]pyrrole-1,3(2H,3aH)-dione, hydrochloride, hydrate] | 40 (i.p.) mg/kg | inhibition at 1 µM [3]: 43%; ED50 (avoidance responding [1]; po, read-out: Active at mg/kg (AB50 value)): 68.4 mg/kg
O=C1C2C3CCCCC(CC3)C2C(=O)N1CCCCN1CCN(c2cncc(Cl)n2)CC1 (centres unmarked) [Example 14, hydrochloride, hemihydrate] | 40 (i.p.) mg/kg | pKi [3]: 6.36
Cl.O=C1C2C3CCC(C4CC43)C2C(=O)N1CCCCN1CCN(c2nccnc2Cl)CC1 (centres unmarked) [Example 26, 2-[4-[4-(3-Chloro-2-pyrazinyl)-1-piperazinyl]butyl]hexahydro-4,6-ethanocycloprop[f]isoindole-1,3(2H,3aH)-dione, hydrochloride] | 40 (i.p.) mg/kg | inhibition at 1 µM [3]: 75%
O=C1C2C3C=CC(C4CC34)C2C(=O)N1CCCCN1CCN(c2ccc(Cl)nn2)CC1 (centres unmarked) [Example 9, 2-[4-[4-(6-Chloro-3-pyridazinyl)-1-piperazinyl]butyl]hexahydro-4,6-ethenocycloprop[f]isoindole-1,3-(2H,3H)-dione, hydrochloride] | 40 (i.p.) mg/kg | –
O=C1C2C3C=CC(C4CCC34)C2C(=O)N1CCCCN1CCN(c2cncc(Cl)n2)CC1 (centres unmarked) [Example 15, 2-[4-[4-(6-Chloro-2-pyrazinyl)-1-piperazinyl]butyl]-octahydro-4,7-etheno-1H-cyclobut[f]isoindol-1,3-(2H)-dione, hydrochloride] | 40 (i.p.) mg/kg | pKi [3]: 6.38
Cl.Cl.O.O=C1C2C3C=CC(C4C=CC43)C2C(=O)N1CCCCN1CCN(c2ccc(C(F)(F)F)cn2)CC1 (centres unmarked) [Example 28, 3a,4,4a,6a,7,7a-Hexahydro-2-[4-[4-(5-trifluoromethyl-2-pyridinyl)-1-piperazinyl]-butyl]-4,7-etheno-1H-cyclobut[f]isoindole-1,3(2H)-dione, dihydrochloride, hydrate] | 40 (i.p.) mg/kg | –
Cl.Cl.O=C1C2C3CCCC(CC3)C2C(=O)N1CCCCN1CCN(c2ncccn2)CC1 (centres unmarked) [Example 29, 4,5,6,7,8,8a-Hexahydro-2-[4-[4-(2-pyrimidinyl)-1-piperazinyl]butyl]-4,8-ethanocyclohepta[c]pyrrole-1,3(2H,3aH)-dione, dihydrochloride] | 40 (i.p.) mg/kg | –
